# Data reported in US12662498B2 (priority 2017, dated 2026).
# Test: ICH stability study of psilocybin batches (appearance, water content, purity, assay)
# [1] = T = 1 month, 2-8° C., listed as 170231
# [2] = T = 1 month, 25° C./60% RH, listed as 170231
# [3] = T = 1 month, 40° C./75% RH, listed as 170231
# [4] = T = 3 months, 2-8° C., listed as 170231
# [5] = T = 3 months, 25° C./60% RH, listed as 170231
# [6] = T = 3 months, 40° C./75% RH, listed as 170231
smiles,measurement,setting,value
CN(C)CCc1c[nH]c2cccc(OP(=O)(O)O)c12 [Batch 170231],Assay by HPLC (on a dry basis),T = 0,98.65% ^w/w % w/w
same,Impurities LT 0.05%,T = 0,0.22%
same,Impurities by HPLC: RRT0.69,T = 0,LT 0.05%
same,Impurities by HPLC: RRT 1.49,T = 0,0.06%
same,Impurities by HPLC: RRT 1.62 (Psilocin),T = 0,0.39%
same,Impurities by HPLC: RRT 1.70,T = 0,0.05%
same,Impurity at RRT 1.89,T = 0,LT 0.05%
same,Impurity at RRT 2.45,T = 0,LT 0.05%
same,Chemical Purity By HPLC,"T = 0, listed as 170231",99.28%
same,Total Impurities,"T = 0, listed as 170231",0.72%
same,Water content by loss on drying,"T = 0, listed as 170231",0.32% ^w/w % w/w
same,Assay by HPLC (on a dry basis),"T = 1 month, 2-8° C.",98.76% ^w/w % w/w
same,Impurities LT 0.05%,"T = 1 month, 2-8° C.",0.39%
same,Impurities by HPLC: RRT 1.49,"T = 1 month, 2-8° C.",0.05%
same,Impurities by HPLC: RRT 1.62 (Psilocin),"T = 1 month, 2-8° C.",0.36%
same,Impurities by HPLC: RRT 1.70,"T = 1 month, 2-8° C.",LT 0.05%
same,Impurity at RRT 1.89,"T = 1 month, 2-8° C.",LT 0.05%
same,Impurity at RRT 2.45,"T = 1 month, 2-8° C.",LT 0.05%
same,Chemical Purity By HPLC,[1],99.20%
same,Total Impurities,[1],0.80%
same,Water content by loss on drying,[1],0.27% ^w/w % w/w
same,Assay by HPLC (on a dry basis),"T = 1 month, 25° C./60% RH",97.98% ^w/w % w/w
same,Impurities LT 0.05%,"T = 1 month, 25° C./60% RH",0.42%
same,Impurities by HPLC: RRT 1.49,"T = 1 month, 25° C./60% RH",0.05%
same,Impurities by HPLC: RRT 1.62 (Psilocin),"T = 1 month, 25° C./60% RH",0.37%
same,Impurities by HPLC: RRT 1.70,"T = 1 month, 25° C./60% RH",LT 0.05%
same,Impurity at RRT 1.89,"T = 1 month, 25° C./60% RH",LT 0.05%
same,Impurity at RRT 2.45,"T = 1 month, 25° C./60% RH",LT 0.05%
same,Chemical Purity By HPLC,[2],99.16%
same,Total Impurities,[2],0.84%
same,Water content by loss on drying,[2],0.17% ^w/w % w/w
same,Assay by HPLC (on a dry basis),"T = 1 month, 40° C./75% RH",98.52% ^w/w % w/w
same,Impurities LT 0.05%,"T = 1 month, 40° C./75% RH",0.41%
same,Impurities by HPLC: RRT 1.49,"T = 1 month, 40° C./75% RH",0.06%
same,Impurities by HPLC: RRT 1.62 (Psilocin),"T = 1 month, 40° C./75% RH",0.36%
same,Impurities by HPLC: RRT 1.70,"T = 1 month, 40° C./75% RH",LT 0.05%
same,Impurity at RRT 1.89,"T = 1 month, 40° C./75% RH",LT 0.05%
same,Impurity at RRT 2.45,"T = 1 month, 40° C./75% RH",LT 0.05%
same,Chemical Purity By HPLC,[3],99.17%
same,Total Impurities,[3],0.83%
same,Water content by loss on drying,[3],0.19% ^w/w % w/w
same,Assay by HPLC (on a dry basis),"T = 3 months, 2-8° C.",98.45% ^w/w % w/w
same,Impurities LT 0.05%,"T = 3 months, 2-8° C.",0.22%
same,Impurities by HPLC: RRT0.69,"T = 3 months, 2-8° C.",0.05%
same,Impurities by HPLC: RRT 1.49,"T = 3 months, 2-8° C.",0.05%
same,Impurities by HPLC: RRT 1.62 (Psilocin),"T = 3 months, 2-8° C.",0.37%
same,Impurities by HPLC: RRT 1.70,"T = 3 months, 2-8° C.",LT 0.05%
same,Impurity at RRT 1.89,"T = 3 months, 2-8° C.",LT 0.05%
same,Impurity at RRT 2.45,"T = 3 months, 2-8° C.",LT 0.05%
same,Chemical Purity By HPLC,[4],99.30%
same,Total Impurities,[4],0.70%
same,Water content by loss on drying,[4],0.17% ^w/w % w/w
same,Assay by HPLC (on a dry basis),"T = 3 months, 25° C./60% RH",99.46% ^w/w % w/w
same,Impurities LT 0.05%,"T = 3 months, 25° C./60% RH",0.27%
same,Impurities by HPLC: RRT0.69,"T = 3 months, 25° C./60% RH",LT 0.05%
same,Impurities by HPLC: RRT 1.49,"T = 3 months, 25° C./60% RH",0.05%
same,Impurities by HPLC: RRT 1.62 (Psilocin),"T = 3 months, 25° C./60% RH",0.36%
same,Impurities by HPLC: RRT 1.70,"T = 3 months, 25° C./60% RH",LT 0.05%
same,Impurity at RRT 1.89,"T = 3 months, 25° C./60% RH",LT 0.05%
same,Impurity at RRT 2.45,"T = 3 months, 25° C./60% RH",LT 0.05%
same,Chemical Purity By HPLC,[5],99.31%
same,Total Impurities,[5],0.69%
same,Water content by loss on drying,[5],0.01% ^w/w % w/w
same,Assay by HPLC (on a dry basis),"T = 3 months, 40° C./75% RH",98.64% ^w/w % w/w
same,Impurities LT 0.05%,"T = 3 months, 40° C./75% RH",0.34%
same,Impurities by HPLC: RRT0.69,"T = 3 months, 40° C./75% RH",LT 0.05%
same,Impurities by HPLC: RRT 1.49,"T = 3 months, 40° C./75% RH",0.06%
same,Impurities by HPLC: RRT 1.62 (Psilocin),"T = 3 months, 40° C./75% RH",0.39%
same,Impurities by HPLC: RRT 1.70,"T = 3 months, 40° C./75% RH",LT 0.05%
same,Impurity at RRT 1.89,"T = 3 months, 40° C./75% RH",LT 0.05%
same,Impurity at RRT 2.45,"T = 3 months, 40° C./75% RH",LT 0.05%
same,Chemical Purity By HPLC,[6],99.17%
same,Total Impurities,[6],0.79%
same,Water content by loss on drying,[6],0.19% ^w/w % w/w
same,Appearance,"T = 6 months, 2-8° C.",An off white solid.
same,Assay by HPLC (on a dry basis),"T = 6 months, 2-8° C.",97.97% ^w/w % w/w
same,Chemical Purity By HPLC,"T = 6 months, 2-8° C.",99.20%
same,Impurities LT 0.05%,"T = 6 months, 2-8° C.",0.32%
same,Impurities by HPLC: RRT0.69,"T = 6 months, 2-8° C.",0.06%
same,Impurities by HPLC: RRT 1.49,"T = 6 months, 2-8° C.",LT 0.05%
